We go through two compounds from ChEMBL document CHEMBL5126656, “Callintegers A and B, Unusual Tricyclo[4.4.0.09,10]tetradecane Clerodane Diterpenoids from Callicarpa integerrima with Inhibitory Effects on NLRP3 Inflammasome Activation” (J Nat Prod, 2022).

The structures appear in SMILES notation. Activity calls are given as the source filed them. No cut-off for these calls is given here.

For test [1], the target named is NACHT, LRR and PYD domains-containing protein 3 (Mus musculus, UniProt Q8R4B8). The test can be described thus: Inhibition of NLRP3 inflammasome activation in LPS/nigericin-treated mouse J774A.1 cells assessed as decrease in IL-1beta level pretreated for 0.5 hrs followed by stimulation with nigericin for 1 hr by ELISA. The class given is cell-based, J774.A1.
In test [2] the target is NACHT, LRR and PYD domains-containing protein 3 (Mus musculus) (UniProt Q8R4B8). The test can be described thus: Inhibition of NLRP3 inflammasome activation in LPS/nigericin-treated mouse J774A.1 cells assessed as decrease in IL-1beta level pretreated for 0.5 hrs followed by stimulation with nigericin for 1 hr by Western blot analysis. The class given is cell-based. The note with it: J774.A1, time 1.5 hrs.

Test [3] shares this target. Briefly: Inhibition of NLRP3 inflammasome activation in LPS/nigericin-treated mouse J774A.1 cells assessed as decrease in caspase-1 level pretreated for 0.5 hrs followed by stimulation with nigericin for 1 hr by Western blot analysis. The class given is cell-based. As to conditions: J774.A1, time 1.5 hrs.
For test [4] the target is unchanged. The test can be described thus: Inhibition of NLRP3 inflammasome activation in LPS/nigericin-treated mouse J774A.1 cells assessed as decrease in pyroptosis at 20 uM pretreated for 0.5 hrs followed by stimulation with nigericin for 1 hr by fluorescent microscopic analysis. The class given is cell-based. The note with it: J774.A1, time 1.5 hrs.

Sequence of NACHT, LRR and PYD domains-containing protein 3 (Mus musculus) (Q8R4B8 whole entry, the tested form may be a part): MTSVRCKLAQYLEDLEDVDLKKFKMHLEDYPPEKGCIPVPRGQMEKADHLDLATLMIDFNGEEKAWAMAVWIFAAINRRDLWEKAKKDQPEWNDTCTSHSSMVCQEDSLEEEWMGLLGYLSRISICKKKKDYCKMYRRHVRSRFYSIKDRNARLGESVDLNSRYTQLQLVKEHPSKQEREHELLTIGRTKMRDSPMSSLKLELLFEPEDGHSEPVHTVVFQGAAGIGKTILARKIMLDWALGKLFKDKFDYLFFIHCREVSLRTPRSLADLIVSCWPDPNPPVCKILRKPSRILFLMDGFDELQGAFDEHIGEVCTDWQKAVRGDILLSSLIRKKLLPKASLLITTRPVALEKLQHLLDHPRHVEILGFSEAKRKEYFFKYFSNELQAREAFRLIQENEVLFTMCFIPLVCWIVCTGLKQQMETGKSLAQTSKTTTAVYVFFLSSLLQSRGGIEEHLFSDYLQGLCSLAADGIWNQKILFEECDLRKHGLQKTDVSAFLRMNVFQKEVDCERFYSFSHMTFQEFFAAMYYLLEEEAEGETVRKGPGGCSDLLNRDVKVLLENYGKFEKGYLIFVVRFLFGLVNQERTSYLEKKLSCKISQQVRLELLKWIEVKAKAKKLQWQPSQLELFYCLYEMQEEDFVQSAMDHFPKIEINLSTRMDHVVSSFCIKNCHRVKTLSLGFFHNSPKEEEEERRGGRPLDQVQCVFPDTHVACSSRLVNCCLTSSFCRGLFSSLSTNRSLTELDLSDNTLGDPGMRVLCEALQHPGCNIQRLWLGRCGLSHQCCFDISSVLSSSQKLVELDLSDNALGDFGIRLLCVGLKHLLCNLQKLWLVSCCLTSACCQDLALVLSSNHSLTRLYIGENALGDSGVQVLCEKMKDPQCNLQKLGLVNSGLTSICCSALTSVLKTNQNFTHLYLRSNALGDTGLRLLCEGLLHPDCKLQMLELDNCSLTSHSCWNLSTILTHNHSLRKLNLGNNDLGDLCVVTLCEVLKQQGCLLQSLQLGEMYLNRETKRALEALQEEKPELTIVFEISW
Sequence of NACHT, LRR and PYD domains-containing protein 3 (Q8R4B8 whole entry, the tested form may be a part): as above

Regarding `C=C1[C@@H](OC(C)=O)CC[C@]23C=C(C=O)[C@@H](OC(C)=O)C[C@@]2(C)[C@H](C)CC[C@@]13C`, the IC50 in test [1] was 5500 nM. In addition, the inhibition entry in test [2], in test [3] and in test [4] was “Active” throughout.

Take `CC(C)(O)c1coc(S(=O)(=O)NC(=O)Nc2c3c(cc4c2CCC4)CCC3)c1`: the IC50 in test [1] was 23.1 nM.
